Some test systems named below: NCI/ADR-RES ovarian; HS 578T breast; MCF7 breast; BT-549 breast; MDA-MB-435; DU-145 prostate; T-47D breast.
Holding throughout (assay): NCI anticancer screen, dose series, 48 h

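The compound was tested at five concentrations on cells cultured in 96-well plates, with a 48-hour exposure period. GI50: concentration for 50% inhibition of growth. TGI denotes the concentration required for complete inhibition of growth.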

Consider `COc1ccc(Nc2nnc(-c3cc(O)ccc3O)s2)cc1`, for which the GI50 is greater than 50 µM in the experiment on NCI/ADR-RES ovarian; 19.7 µM in the experiment with HS 578T breast; 11.4 µM in the experiment with MCF7 breast; 14.9 µM in the experiment on BT-549 breast; 9.22 µM in the experiment with MDA-MB-435; greater than 50 µM with DU-145 prostate. Moreover, the TGI in the experiment on NCI/ADR-RES ovarian was greater than 50 µM; in the experiment with HS 578T breast, greater than 50 µM; with MCF7 breast, 35.4 µM; in the experiment on BT-549 breast it was 43.6 µM; in the experiment with MDA-MB-435, 19.1 µM; in the experiment with DU-145 prostate, greater than 50 µM.

With `COc1cc(F)ccc1-c1ncnc(Nc2cccc(CS(C)(=N)=O)c2)n1` (stereo not drawn), the GI50 in the experiment with NCI/ADR-RES ovarian was 3.19 µM; in the experiment with HS 578T breast, 1.21 µM; in the experiment on MCF7 breast, 0.414 µM; with BT-549 breast it was 1.07 µM; in the experiment with MDA-MB-435, 1.55 µM; with DU-145 prostate it was 0.784 µM. The TGI with NCI/ADR-RES ovarian was greater than 100 µM; with HS 578T breast it was 23.9 µM; with MCF7 breast, greater than 100 µM; in the experiment with BT-549 breast, greater than 100 µM; in the experiment on MDA-MB-435 it was greater than 100 µM; with DU-145 prostate, greater than 100 µM.

Take `COc1ccc(-c2nn(-c3ccc(NC(=O)c4ccc(Cl)c(Cl)c4)cc3)cc2-c2ccncc2)cc1Cl`: the GI50 was 4.12 µM in the experiment on NCI/ADR-RES ovarian; 1.05 µM with HS 578T breast; 2.97 µM with MCF7 breast; greater than 50 µM with T-47D breast; 3.23 µM in the experiment with BT-549 breast; 3.97 µM in the experiment on MDA-MB-435. Also, the GI50 in the experiment with DU-145 prostate was greater than 50 µM. Moreover, the TGI with NCI/ADR-RES ovarian was greater than 50 µM; with HS 578T breast, 3.37 µM; in the experiment on MCF7 breast, greater than 50 µM; with T-47D breast it was greater than 50 µM; in the experiment with BT-549 breast it was greater than 50 µM; in the experiment with MDA-MB-435, greater than 50 µM. The TGI in the experiment with DU-145 prostate is greater than 50 µM.

As to `O=C(Nc1ccncc1)C(=O)c1cn(S(=O)(=O)c2ccc(F)cc2)c2ccccc12`, the GI50 is 1.76 µM in the experiment on NCI/ADR-RES ovarian; 3.65 µM in the experiment on HS 578T breast; 0.779 µM in the experiment with MCF7 breast; 2.24 µM in the experiment with T-47D breast; 1.58 µM in the experiment with BT-549 breast; 3.37 µM with DU-145 prostate. In addition, the TGI with NCI/ADR-RES ovarian is greater than 100 µM; with HS 578T breast it was 82.1 µM; in the experiment on MCF7 breast it was greater than 100 µM; in the experiment on T-47D breast it was 61 µM; with BT-549 breast, 39.9 µM; with DU-145 prostate, 20.4 µM.

As to `CCSc1ncnc2c1ncn2C1OC(CO)C(O)C1O` (stereo not drawn), the GI50 in the experiment with NCI/ADR-RES ovarian is 0.432 µM; with HS 578T breast it was 0.975 µM; with MCF7 breast, 0.288 µM; with T-47D breast, 1.69 µM; in the experiment with BT-549 breast, 0.729 µM; in the experiment with MDA-MB-435, 0.482 µM. Moreover, in the experiment with DU-145 prostate, the GI50 was 0.129 µM. Further, the TGI in the experiment with NCI/ADR-RES ovarian was greater than 57.1 µM; with HS 578T breast, 34 µM; in the experiment on MCF7 breast it was greater than 91.2 µM; with T-47D breast, greater than 48.9 µM; in the experiment with BT-549 breast, greater than 44.2 µM; in the experiment on MDA-MB-435, greater than 100 µM. This compound also came in with a TGI in the experiment on DU-145 prostate of 32.5 µM.

Consider `CN(C)CC[PH+](c1ccccc1)c1ccccc1.CN(C)CC[PH+](c1ccccc1)c1ccccc1.[Cl-].[Pd+2]`, for which the GI50 in the experiment with NCI/ADR-RES ovarian, with HS 578T breast, with MCF7 breast, in the experiment with T-47D breast, with BT-549 breast and in the experiment with MDA-MB-435 was greater than 100 µM each time. For the same compound, the GI50 in the experiment with DU-145 prostate was greater than 100 µM. In addition, the TGI in the experiment on NCI/ADR-RES ovarian, with HS 578T breast, in the experiment with MCF7 breast, in the experiment on T-47D breast, with BT-549 breast and with MDA-MB-435 was greater than 100 µM each time. Also, in the experiment on DU-145 prostate, the TGI was greater than 100 µM.

In the case of `Cc1c2c(C#N)nccc2c(C)c2c1c1ccccc1n2Cc1ccccc1`, the TGI in the experiment with NCI/ADR-RES ovarian, with HS 578T breast, in the experiment on MCF7 breast, in the experiment with T-47D breast, in the experiment with MDA-MB-435 and in the experiment with DU-145 prostate was greater than 100 µM in each case.

Turning to `C#C[C@]1(O)CCC2C3CCc4cc(O)ccc4C3CC[C@@]21C` (stereo partly drawn), the GI50 in the experiment on NCI/ADR-RES ovarian is 3.14 µM; in the experiment with HS 578T breast, 3.08 µM; in the experiment with MCF7 breast it was 9.51 µM; in the experiment on T-47D breast it was 6.91 µM; in the experiment with BT-549 breast, 4.64 µM; in the experiment with MDA-MB-435, 0.628 µM. Further, in the experiment with DU-145 prostate, the GI50 is 6.71 µM. The TGI with NCI/ADR-RES ovarian is 25.4 µM; with HS 578T breast, 17.7 µM; with MCF7 breast, 25.2 µM; in the experiment with T-47D breast it was 24.4 µM; with BT-549 breast, 18.4 µM; in the experiment with MDA-MB-435 it was 9.59 µM. For the same compound, the TGI in the experiment with DU-145 prostate was determined as 23.5 µM.

Turning to `O=C1/C(=C/c2cccc(Cl)c2Cl)N=C(c2ccccc2)N1C1CC1`, the GI50 with NCI/ADR-RES ovarian was 11.8 µM; in the experiment with HS 578T breast it was 16.6 µM; in the experiment on MCF7 breast it was 7.98 µM; in the experiment on BT-549 breast it was 9.84 µM; in the experiment with MDA-MB-435 it was 11.1 µM; in the experiment with DU-145 prostate it was 12.1 µM. Also, the TGI is 31.1 µM with NCI/ADR-RES ovarian; 39.5 µM in the experiment with HS 578T breast; 19.2 µM in the experiment on MCF7 breast; 24.1 µM with BT-549 breast; 24.1 µM in the experiment with MDA-MB-435; 29.4 µM in the experiment with DU-145 prostate.

Regarding `COc1ccc2[nH]cc(C3(c4c[nH]c5ccc(OC)cc45)C(=O)Nc4ccc(F)cc43)c2c1`, the GI50 in the experiment with NCI/ADR-RES ovarian is 5.76 µM; with HS 578T breast, 3.13 µM; in the experiment on MCF7 breast, 2.72 µM; in the experiment with T-47D breast, 3.04 µM; in the experiment with BT-549 breast, 3.21 µM; in the experiment on MDA-MB-435, 1.97 µM. Moreover, the GI50 in the experiment with DU-145 prostate is 3.71 µM. For the same compound, the TGI was 31.1 µM in the experiment on NCI/ADR-RES ovarian; 14.8 µM with HS 578T breast; 10.1 µM in the experiment on MCF7 breast; 14.9 µM with T-47D breast; 11.7 µM in the experiment on BT-549 breast; 4.73 µM with MDA-MB-435. Moreover, the TGI in the experiment with DU-145 prostate was found to be 13.1 µM.

With `Cn1cc(C2=C(c3cn(CCCCO)c4ccccc34)C(=O)NC2=O)c2ccccc21`, the GI50 in the experiment with NCI/ADR-RES ovarian was 11.2 µM; in the experiment on HS 578T breast, 4.87 µM; in the experiment with MCF7 breast, 4.45 µM; in the experiment on T-47D breast, 9.64 µM; in the experiment on BT-549 breast, 8.27 µM; in the experiment on MDA-MB-435, 8.81 µM. Also, the GI50 with DU-145 prostate was 10 µM. Further, the TGI in the experiment with NCI/ADR-RES ovarian was greater than 25 µM; with HS 578T breast, greater than 25 µM; in the experiment with MCF7 breast it was greater than 25 µM; in the experiment on T-47D breast it was 24.8 µM; in the experiment with BT-549 breast, greater than 19.6 µM; with MDA-MB-435, greater than 25 µM. In the experiment with DU-145 prostate, the TGI was greater than 25 µM.
